Legend:
[1] = tested on: GR nuclear translocation in A549 cells; assay: Immunofluorescence of nuclear GR translocation in A549 cells; type: cell-based, human; details: serum starved A549 cells, 1 µM, 30 min
Experimental: To detect endogenous GR in A549 cells, cells were grown in serum free media for 24 h followed by treatment with 1 µM of specific GR ligands. After 30 min of treatment, cells on the cover glass were fixed in 4% formaldehyde in phosphate-buffered saline (PBS), permeabilized with 0.3% Triton X-100–PBS, and then blocked in 5% milk, 10% FCS, 0.3% bovine serum albumin, and 0.3% Triton X-100 in PBS for 30 min at room temperature. Primary antibodies against anti GR-antibody (SantaCruz Biotechnology) were used at a dilution of 1:200. Nuclei were stained by DAPI and samples were analyzed using a confocal Leica LSM410 microscope. To quantify nuclear translocation of GR in a standardized manner, multichannel fluorescence images were analyzed using a script for FIJI image analysis freeware (http://fiji.sc) that is essentially based on a pipeline described before (CellBlocks.ijm) ([39]), and is available upon request. In brief, the analysis first segments nuclei in the Hoechst/DAPI channel and then uses the nuclear mask to define perinuclear cytoplasmic regions of interest (ROIs). Nuclei are detected after local contrast enhancement and Gaussian smoothing to, respectively, cover for spatial illumination heterogeneity and noise. After automatic thresholding (Isodata algorithm), touching nuclei are separated using a conditional watershed algorithm ([40]). Next, cytoplasmic ROIs are determined as concentric bands around the nuclei by Voronoi-restrained region growing ([41]). Finally, the average intensity of the GR channel is measured in both the nuclear and cytoplasmic ROIs and the nuclear-to cytoplasm signal intensity ratio (N/C Ratio) is calculated per cell (Figure S1 in Supplementary Material) ([42]).
Figure 6 Selective glucocorticoid receptor agonist GSK866 analogs UAMC-1217, UAMC-1218, but not UAMC-1158 and UAMC-1159 trigger nuclear glucocorticoid receptor (GR) translocation. (A) Serum starved A549 cells were left solvent treated or treated for 30 min with 1 µM Dex, Dex-mesylate (Dex-Mes), GSK866, UAMC-1158, UAMC-1159, UAMC-1217, or UAMC-1218. GR translocation was evaluated by immunofluorescence whereas nuclei were stained by DAPI dye. Magnification is at 100×. White scalebars represent […]. (B) Automated image quantification of GR translocation of three replicate immunofluorescence images of the different experimental setups.

GR [2] = tested on: GR; design: method as in PMID 27612544; details: ref [14], cited from earlier work; for % inhibition of GR ligand binding: 1.5 nM [3H]-dexamethasone, 1 µM ligand; for IC50 / Ki: displacement of radiolabeled Dex; for IC50: read-out: IC50 (GR radioligand binding); for Ki: read-out: Ki (GR radioligand binding); for displacement of radiolabeled Dex: cell-based ligand-binding competition assay
[3] = tested on: GR transactivation, p(GRE)2-50-luc reporter in HaCat cells; assay: p(GRE)2-50-luc reporter gene assay (GR transactivation); type: cell-based; details: 6 h; for GR transactivation in GRE-luc reporter: concentration range 10^−6–10^−10 M
Experimental: (§1) In order to compare transactivation and transrepression potencies of the different synthesized GSK866 analogs, we performed GRE- and NFκB-luciferase-dependent reporter gene studies in stable transfected cell lines, as previously described ([3], [8]). HaCat cells expressing p(GRE)2 50-Luc and L929sA cells expressing p(GRE)250-Luc or p(NFκB)350-Luc were cultured in DMEM medium with 1% L-glutamine, supplemented with 10% feral bovine serum (FBS), 100 µg/ml streptomycin, and 100 IU/mL penicillin in a humidified 5% CO2 atmosphere. Cells were passaged every 2 days at a dilution of 1:6. Reporter gene cells were plated at a density of 0.5 × 10^5 cells/well in 24 well plates and grown overnight. p(GRE)250-Luc-dependent reporter gene cells were treated with solvent (DMSO) or compound (100 fM, 1 nM, 10 nM, 100 nM, and 1 µM) for 6 h, whereas in case of p(NFκB)350-Luc, TNF (2,500 IU/mL) was added 2 h following compound treatment. After incubation with the compounds, medium was removed and cells were washed twice with PBS followed by adding 100 µl of 1× lysis buffer (0.2 M K2HPO4, 0.2 M KH2PO4, Triton X-100, pH 7.6). 25 µl of lysate was assayed for luciferase activity by adding 50 µl of luciferase assay substrate (1 mM luciferin or luciferin salt, 3 mM ATP, and 15 mM MgSO4 in 30 mM HEPES buffer, pH 7.8) followed by 10 s mixing and measuring 1 s bioluminescence using an Envision multilabel reader (Perkin Elmer).
(§2) Figure 3 Selective glucocorticoid receptor agonist GSK866 analogs UAMC-1217, UAMC-1218 but not UAMC-1158 and UAMC-1159 elicit selective glucocorticoid receptor-transactivation and NFκB-transrepression properties. Glucocorticoid response element (GRE)- and NFκB-luciferase-dependent reporter gene assays were performed in L929sA and HaCat reporter cells which were stably transfected with, respectively, p(NFκB)3-50luc or p(GRE)2-50-luc constructs. For p(GRE)2-50-luc reporter assays, cells were solvent-treated or induced with different concentrations of Dex (A), Dex-mesylate (Dex-Mes) (A), SEGRA GSK866 (C) or analogs UAMC-1158 (D), UAMC-1159 (E), UAMC-1217 (F), and UAMC-1218 (G) as indicated for a total exposure time of 6 h, whereas cells were cotreated for TNF (2,500 IU/ml) in the last 4 h for p(NFkB)3-50luc reporter assays (B–G). Corresponding lysates were assayed for luciferase activities and normalized for protein content as described in the Section “Materials and Methods.” Promoter activities are expressed as relative induction factor (± standard deviation) i.e., the ratio of expression levels recorded either at induced and non-induced conditions, with the latter taken to be 1.

[4] = tested on: TNF-induced NFκB reporter gene activity in L929sA cells; assay: p(NFκB)3-50luc reporter gene assay with TNF (NFκB transrepression); type: cell-based; details: TNF 2,500 IU/ml; for NFκB transrepression in NFκB-luc reporter: dose range
Experimental: as §1, §2

[5] = tested on: GR Ser211 phosphorylation; assay: Western blot of GR Ser211 phosphorylation; type: cell-based; details: 1 µM, 6 h (UAMC-1158: Figure S2, 4 or 24 h)
Experimental: Whole cell extracts contain multiple protease inhibitors (Complete Mini®, Roche) and Halt phosphatase inhibitor cocktail (Thermoscientific). Soluble protein extracts were obtained after three times freeze and thaw cycles and centrifugation at […] for 15 min at 4°C. Samples were separated by sodium dodecyl sulfate-polyacrylamidegel electrophoresis (SDS-PAGE) and transferred onto nitrocellulose membranes (Hybond C, Amersham) following standard protocols. After blocking, membranes were incubated overnight at 4°C with the primary antibodies: anti-GR (sc-8992, SantaCruz Biotechnology), anti-phospho-GR Ser211 (4161, Cell Signalling) and anti-Actin (A3853, Sigma-Aldrich) followed by dye-conjugated secondary antibodies (LI-COR® Biosciences). Bound complexes were detected with the Odyssey® infrared imaging system (LI-COR®) and quantified by Image J software.
Figure 5 Selective glucocorticoid receptor agonist GSK866 and its analogs UAMC-1217, UAMC-1218 trigger glucocorticoid receptor (GR) Ser211 phosphorylation. (A) Western detection of expression levels of Actin, GR, and GR Ser S211 phosphorylation in HaCat cells following 6 h treatment with 1 µM Dex, UAMC-1217, UAMC-1218, or GSK866. (B) Bar plot representation of Western blot intensities of Actin, GR, and GR Ser S211 phosphorylation observed in panel A, as quantified by Image J. (C) Western detection of expression levels of Actin, GR expression, and Ser S211 phosphorylation in HaCat cells following 6 h treatment with, respectively, 10, 100, or 1,000 nM Dex or UAMC-1217. (D) Bar plot representation of Western blot intensities of Actin, GR, and GR Ser S211 phosphorylation observed in panel (C), as quantified by free Image J software.

recombinant GR-LBD (hGR) = assay: Mass spectrometry of tryptic peptides of recombinant GR-LBD after ligand incubation (covalent binding); design: species or system human; details: 2 h at 37°C, trypsin digestion, LC-MS/MS
Experimental: Recombinant His6-MBP-mCaspase3 site-LBD-hGR was expressed in the Escherichia coli strain BL21codon + pICA2 that was transformed with the corresponding pLHM36LBD-hGR plasmid and in which expression was induced by Isopropyl β-D-1-thiogalactopyranoside (IPTG) under control of a pL-promotor. The transformed bacteria were grown in Luria Bertani medium supplemented with ampicillin (100 µg/ml) and kanamycin (50 µg/ml) overnight at 28°C before 1/100 inoculation in 12 × 0.5 l provided with Luria Bertani medium supplemented with ampicillin (100 µg/ml) and 1% glycerol in a shaker incubator. The cells were grown to an optical density at AU 600 nm of 0.65, transferred to 20°C and expression was induced by addition of 1 mM IPTG overnight. Cells were then harvested and frozen at −20°C. […] After thawing, the cells were re-suspended at 3 ml/g in cold 20 mM Tris-HCl pH 7.4, 200 mM NaCl, 1 mM EDTA, 1 tablet complete protease inhibitor cocktail from Roche/50 ml, and 10 mM β-mercaptoethanol. The cytoplasmic fraction was prepared by sonication of the cells on ice and isolated by centrifugation at 18,000 × g for 30 min. All further purification steps were conducted at 4°C. The clear supernatant was applied to an amylase column (BioLabs, XK26 × 20, 100 ml), equilibrated with 20 mM Tris–HCl pH 7.4, 200 mM NaCl, 1 mM EDTA, and 10 mM β-mercaptoethanol. The column was eluted with 20 mM Tris–HCl pH 7.4, 200 mM NaCl, 1 mM EDTA, 10 mM maltose, and 10 mM β-mercaptoethanol. […] Recombinant purified His-MBP-DEVD-GR-LBD fusion protein was dissolved at a concentration of 1 mg in 1.7 ml PBS buffer.
Each aliquot was incubated 2 h at 37°C. […] 120 µl of each sample was loaded onto a spin column and the flow-through was collected (1,500 × g, 2 min). Trypsin (5 µl of 20 mM stock solution) was added, and the samples were incubated 20 h at 37°C. Then, 0.1% FA (formic acid) (41.5 µl) and 20 mM TCEP in 0.1% FA (18.5 µl, 5.7 mg TCEP/ml) were added [final volume = 185 µl, final concentration TCEP = 2 mM, 1 µg material/2.5 μl], and the samples were subjected to LC–MS/MS analysis.
The obtained peptide mixtures were introduced onto an LC–MS/MS system; the Ultimate 3000 RSLC nano (Dionex, Amsterdam, The Netherlands) in-line connected to an LTQ-Orbitrap Velos (Thermo Fisher Scientific, Bremen, Germany). The sample mixture was loaded on a trapping column [made in-house, 100 µm internal diameter (I.D.) × 20 mm, 5 µm C18 beads (Reprosil-HD, Dr. Maisch)]. After back flushing from the trapping column, the sample was loaded on a reverse-phase column [made in-house, 75 µm I.D. × 150 mm, 5 µm C18 beads (Reprosil-HD, Dr. Maisch)].
The mass spectrometer was operated in data-dependent mode, automatically switching between MS and MS/MS acquisition for the 10 most abundant peaks in a given MS spectrum. […]

GR [6] = assay: Cell-based GR ligand-binding competition assay with [3H]-dexamethasone; details: from IC50 values of ligand displacement assays; ref [14]

| Compound | nuclear GR translocation [1] | % inhibition of GR ligand binding (GR [2]) | IC50 (GR [2]) | Ki (GR [2]) | GR transactivation in GRE-luc reporter [3] | inhibition of TNF-induced NFκB reporter gene activity ([4]; 10 nM compound) | displacement of radiolabeled Dex (GR [2]) | NFκB transrepression in NFκB-luc reporter [4] | GR Ser211 phosphorylation [5] | GR transactivation in GRE-luc reporter at 10 nM [3] | Modifications: GR-LBD cysteine-containing peptide covalently bound (recombinant GR-LBD (hGR)) | Modifications: GR-LBD cysteine-containing peptide covalently bound (recombinant GR-LBD (hGR); listed as 1218) | fold lower GR-LBD affinity versus GSK866 (GR [6]) | inhibition at 0.01 µM ([4]; L929sA, 10 nM compound) |
| --- | --- | --- | --- | --- | --- | --- | --- | --- | --- | --- | --- | --- | --- | --- |
| C[C@@H]1C[C@H]2[C@@H]3CCC4=CC(=O)C=C[C@]4(C)[C@@]3(F)[C@@H](O)C[C@]2(C)[C@@]1(O)C(=O)COS(C)(=O)=O [Dex-Mes, dexamethasone-21-mesylate, reference compound] | induce (partial) translocation of GR from the cytosol to the nucleus | 99% | 7.3 nM | 3.7 nM | weaker dose-dependent GR-dependent transactivation than Dex | 40–45% |  |  |  |  |  |  |  |  |
| CCN(CC(O)(CNC(=O)c1cnn(-c2ccc(F)cc2)c1N)C(F)(F)F)C(=O)C1CCCN1C(=O)CCl (stereo not drawn) [UAMC-1159] | completely ineffective | −12% |  |  | completely fail to elicit any GR transactivation at any dose tested |  | failed to show displacement of radiolabeled Dex | completely ineffective |  |  |  |  |  |  |
| CCN(C[C@@](O)(CNC(=O)c1cnn(-c2ccc(F)cc2)c1N)C(F)(F)F)C(=O)c1c(Cl)cccc1Cl [GSK866] | induce (partial) translocation of GR from the cytosol to the nucleus | 100% | 4.6 nM | 2.3 nM | strong GR agonistic activities |  |  | dose-dependent NFκB-transrepression effects | enhance the Ser211 phosphorylation | significant GR transactivation |  |  |  |  |
| CCN(C[C@@](O)(CNC(=O)c1cnn(-c2ccc(F)cc2)c1N)C(F)(F)F)C(=O)CCN1C(=O)C=CC1=O [UAMC-1158] | completely ineffective | −2% |  |  | completely fail to elicit any GR transactivation at any dose tested |  | failed to show displacement of radiolabeled Dex | completely ineffective | failed to show any change in GR phosphorylation status |  |  |  |  |  |
| C=CC(=O)Nc1ccc(Cl)c(C(=O)N(CC)C[C@@](O)(CNC(=O)c2cnn(-c3ccc(F)cc3)c2N)C(F)(F)F)c1Cl [UAMC-1218] | induce (partial) translocation of GR from the cytosol to the nucleus | 96% | 34 nM | 17 nM |  |  |  | dose-dependent NFκB-transrepression effects | enhance the Ser211 phosphorylation | significantly reduced GR transactivation to levels below transactivation observed with 10 nM of Dex | Cys-622 | Peptide 615–633 → C622 | approx. 5 fold | ~95% |

Reference: publication PMC5672024, “Selective Glucocorticoid Receptor Properties of GSK866 Analogs with Cysteine Reactive Warheads” (Frontiers in Immunology, 2017)
